What was measured:
[1] = molecular target: T1, Purine nucleoside phosphorylase (Plasmodium falciparum, UniProt Q8T9Z7); assay: Inhibition of Plasmodium falciparum PNP
T1 sequence (Q8T9Z7 whole entry): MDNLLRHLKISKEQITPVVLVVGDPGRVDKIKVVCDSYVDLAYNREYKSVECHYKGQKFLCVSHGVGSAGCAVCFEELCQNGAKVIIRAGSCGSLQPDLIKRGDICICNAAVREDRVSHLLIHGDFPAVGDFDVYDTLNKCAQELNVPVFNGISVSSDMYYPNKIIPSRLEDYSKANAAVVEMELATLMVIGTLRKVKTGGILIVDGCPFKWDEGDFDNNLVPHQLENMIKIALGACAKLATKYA

[2] = molecular target: T2, S-methyl-5'-thioadenosine phosphorylase (Homo sapiens, UniProt Q13126); assay: Inhibition of human MTAP
T2 sequence (Q13126 whole entry): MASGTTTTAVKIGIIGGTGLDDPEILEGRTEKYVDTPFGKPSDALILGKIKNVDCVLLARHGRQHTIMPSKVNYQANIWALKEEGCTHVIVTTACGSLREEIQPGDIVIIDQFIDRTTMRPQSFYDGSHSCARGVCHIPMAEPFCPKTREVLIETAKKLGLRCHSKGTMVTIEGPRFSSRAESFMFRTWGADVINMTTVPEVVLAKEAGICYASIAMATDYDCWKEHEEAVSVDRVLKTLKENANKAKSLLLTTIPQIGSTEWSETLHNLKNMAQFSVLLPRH

[3] = molecular target: 5'-methylthioadenosine/S-adenosylhomocysteine nucleosidase (Escherichia coli O157:H7, UniProt P0AF14)
5'-methylthioadenosine/S-adenosylhomocysteine nucleosidase (Escherichia coli O157:H7, UniProt P0AF14), sequence (P0AF14 whole entry): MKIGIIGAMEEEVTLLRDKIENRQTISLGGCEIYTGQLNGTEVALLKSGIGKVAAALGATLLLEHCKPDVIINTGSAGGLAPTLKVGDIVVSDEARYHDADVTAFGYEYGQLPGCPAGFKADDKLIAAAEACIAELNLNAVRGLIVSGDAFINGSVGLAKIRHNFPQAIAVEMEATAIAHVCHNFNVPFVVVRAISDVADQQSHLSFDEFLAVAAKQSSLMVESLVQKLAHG

[4] = molecular target: T3, 5'-methylthioadenosine/S-adenosylhomocysteine nucleosidase (Streptococcus pneumoniae serotype 4 (strain ATCC BAA-334 / TIGR4), UniProt A0A0H2UPP7); assay: Inhibition of Streptococcus pneumoniae MTAN
T3 sequence (A0A0H2UPP7 whole entry): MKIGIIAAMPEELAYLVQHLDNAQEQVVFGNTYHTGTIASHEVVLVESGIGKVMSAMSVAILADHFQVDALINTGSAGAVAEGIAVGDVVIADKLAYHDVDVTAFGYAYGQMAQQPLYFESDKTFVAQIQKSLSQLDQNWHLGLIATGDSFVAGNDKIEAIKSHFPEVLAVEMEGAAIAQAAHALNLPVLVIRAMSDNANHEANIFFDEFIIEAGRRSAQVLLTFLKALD

[5] = molecular target: T4, Purine nucleoside phosphorylase (Bos taurus, UniProt P55859); assay: Inhibition of bovine PNP
T4 sequence (P55859 whole entry): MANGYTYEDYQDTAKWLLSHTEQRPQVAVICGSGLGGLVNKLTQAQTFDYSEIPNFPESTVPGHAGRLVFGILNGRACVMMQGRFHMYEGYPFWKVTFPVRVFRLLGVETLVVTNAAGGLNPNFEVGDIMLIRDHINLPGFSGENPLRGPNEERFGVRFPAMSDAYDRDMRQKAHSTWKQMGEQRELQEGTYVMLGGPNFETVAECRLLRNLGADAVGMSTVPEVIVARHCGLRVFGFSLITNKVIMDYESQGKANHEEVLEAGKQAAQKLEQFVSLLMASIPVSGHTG

[6] = molecular target: T5, Purine nucleoside phosphorylase (Homo sapiens, UniProt P00491); assay: Inhibition of human PNP
T5 sequence (P00491 whole entry): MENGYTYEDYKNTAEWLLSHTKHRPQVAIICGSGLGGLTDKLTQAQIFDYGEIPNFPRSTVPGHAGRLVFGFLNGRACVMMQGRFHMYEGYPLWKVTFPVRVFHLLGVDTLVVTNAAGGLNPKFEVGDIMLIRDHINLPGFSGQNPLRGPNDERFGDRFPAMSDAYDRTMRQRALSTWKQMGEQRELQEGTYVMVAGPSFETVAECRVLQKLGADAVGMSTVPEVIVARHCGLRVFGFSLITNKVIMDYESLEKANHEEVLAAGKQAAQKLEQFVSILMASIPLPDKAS

| Structure (SMILES) | Ki [1] [nM] | Ki [2] [nM] | Ki [3] [nM] | Ki [4] [nM] | Ki [5] [nM] | Ki [6] [nM] |
| --- | --- | --- | --- | --- | --- | --- |
| O=c1[nH]cnc2c(CN3CC(CO)C3)c[nH]c12 | > 10000 | – | – | – | – | – |
| CSC[C@H]1CN(Cc2c[nH]c3c(N)ncnc23)C[C@@H]1O | – | 0.09 | 0.002 | 24 | – | – |
| CSCC1CN(Cc2c[nH]c3c(N)ncnc23)C1 | – | – | 0.45 | 84 | – | – |
| O=c1[nH]cnc2c(CN3C(CO)CC3CO)c[nH]c12 (stereo not drawn) | 1290 | – | – | – | 16 | 12.9 |
| CSCC1(CO)CN(Cc2c[nH]c3c(N)ncnc23)C1 | – | – | 0.84 | 150 | – | – |
| O=c1[nH]cnc2c(CN3CC(CO)(CO)C3)c[nH]c12 | > 10000 | – | – | – | – | – |
| O=c1[nH]cnc2c(CN3[C@@H](CO)C[C@@H]3CO)c[nH]c12 (racemic) | 580 | – | – | – | 360 | 280 |
| O=c1[nH]cnc2c(CN3C[C@H](CO)[C@@H](O)C3)c[nH]c12 [ULODESINE] | 0.5 | – | – | – | 0.1 | 0.0107 |
